Article PMC5339874, “Fluorene-9-bisphenol is anti-oestrogenic and may cause adverse pregnancy outcomes in mice” (Nature Communications, 2017)
Where two headings read alike, the source gives them in different places.

What was measured:
[1] = target: T1, human oestrogen receptor α (Homo sapiens, UniProt P03372); assay: Dual-luciferase reporter assay, full-length ERα and ERE in JEG-3 cells; format: cell-based
T1 construct: expressed in transfected cells; host or cells: JEG-3 human choriocarcinoma cells
T1 sequence (P03372 1-595): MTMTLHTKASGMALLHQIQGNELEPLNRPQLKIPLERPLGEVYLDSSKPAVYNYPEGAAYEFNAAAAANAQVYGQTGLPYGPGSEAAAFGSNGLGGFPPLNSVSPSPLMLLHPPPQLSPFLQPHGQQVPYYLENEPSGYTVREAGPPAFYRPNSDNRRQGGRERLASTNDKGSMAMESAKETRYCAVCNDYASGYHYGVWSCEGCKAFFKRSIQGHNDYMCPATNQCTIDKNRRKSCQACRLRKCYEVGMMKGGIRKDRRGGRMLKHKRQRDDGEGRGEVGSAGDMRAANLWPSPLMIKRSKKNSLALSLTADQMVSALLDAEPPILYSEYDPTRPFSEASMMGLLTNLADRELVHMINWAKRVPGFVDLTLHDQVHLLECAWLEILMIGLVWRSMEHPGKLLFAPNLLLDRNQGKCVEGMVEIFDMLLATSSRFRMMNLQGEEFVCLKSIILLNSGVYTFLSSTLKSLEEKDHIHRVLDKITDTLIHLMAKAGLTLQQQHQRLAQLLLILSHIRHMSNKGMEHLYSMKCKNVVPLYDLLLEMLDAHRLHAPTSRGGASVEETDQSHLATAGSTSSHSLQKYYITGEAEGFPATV
Experimental: Dual-luciferase reporter assays were carried out primarily according to the method described in a previous study. In short, full-length sequences of human oestrogen receptor α and β were amplified by RT-PCR using mRNA from MCF-7 (Supplementary Table 3), and inserted into a pSVSPORT1 (Invitrogen); the resulting constructs were termed pSVhERα and pSVhERβ. A reporter plasmid containing ERE was constructed by inserting four tandem repeats of an ERE of Xenopus laevis vitellogenin A2 into a pGL4.23 vector (Promega), and was termed pGL4-ERE-luc. […] The Renilla LUC control reporter construct pGL4.74-TK was purchased from Promega (Madison, WI). […] The assays were performed in quadruplicate, and the results were expressed as the fold induction of the control after normalization against Renilla luciferase activity. Sigmoidal dose-effect curves were calculated using the GraphPad Prism 4 software. The IC50 values were calculated on the basis of the sigmoidal dose-effect curves. […]

female CD-1 mice = assay: Exposure experiment through drinking water; format: in vivo; conditions: 10-day exposure via drinking water; no statistically significant difference (P>0.05)
Experimental: Mice with a maximal difference in body weight of 1 g were selected for the experiments and randomly assigned to either the treatment or control groups. […] The animals were fed ad libitum an oestrogen-free diet from Trophic Animal Feed High-tech Co., Ltd. (Nantong, China), and drinking water was provided ad libitum in glass bottles. Before the experiments, the mice were randomly assigned to five groups (n=8). Ultra-pure water was used as a control. FULV was dissolved in ultra-pure water to a concentration of 100 ng l^−1 and used as a positive control. […] Two plastic drinking bottles labelled ‘BPA-free', of different brands, were purchased and denoted Bottle A and Bottle B. The plastic bottles were filled with boiling ultra-pure water from a stainless steel electric water heater and allowed to cool down to room temperature before the animal experiment. The BHPF levels in the cooled boiled waters from Bottle A, Bottle B and the stainless steel electric water heater were determined by GC–MS. No BHPF was detected in the cooled boiled water from the stainless steel electric water heater. The cooled boiled waters from Bottle A and Bottle B were transferred to glass bottles during the experiment. The exposure experiment was performed for 10 days beginning on PND 24. After the period of exposure, the mice were weighed and killed in turns for each group, whereby in each turn only one mouse in a group was killed. Blood was collected by cardiac puncture soon after each animal was killed, and the uteri were removed, blotted and weighed by one experimenter to reduce the risk of bias in the data collection and immediately frozen in liquid nitrogen for gene expression analysis. The relative uterine weight was calculated to evaluate the anti-uterotrophic activity. […] The serum BHPF levels were analysed by GC–MS using the same method as that for human serum. The gene expressions of sprr2a and sprr2b in the uteri were determined by Q-RT-PCR.

## Oc1ccc(C2(c3ccc(O)cc3)c3ccccc3-c3ccccc32)cc1 [BHPF, 9,9-bis(4-hydroxyphenyl)-fluorene]
[1]; coexisted with 1 × 10^−9 M E2, read-out: IC50, anti-oestrogenic activity
  IC50: 109 nM
[1]; vs 1 nM E2, read-out: IC50 converted to mass concentration (converted)
  IC50: 109 nM
Female CD-1 mice
  expression of sprr2a in the uteri (Q-RT-PCR): decreased
